Results: paper PMC2833169, “Anti-malarial activity of a non-piperidine library of next-generation quinoline methanols” (Malaria Journal, 2010)
In brackets after ≈: the same amount, converted by molar mass. Read-outs that look alike come from different tables or passages of the source.

Legend:
[1] = metabolic stability in mouse liver microsomes; format: in vitro ADME
Protocol: (§1) Interesting compounds were also submitted for drug-drug interaction and metabolic stability assays. Low IC50s against specific cytochrome P450 isoforms may indicate the potential for a harmful drug interaction to occur in vivo with substrates of that isoform. A lack of metabolic stability in vitro may indicate potential metabolic instability in vivo, and, therefore, a shorter half-life. Drug interaction potential was evaluated in vitro using BD Gentest (Franklin Lakes, NJ) CYP450 inhibition kits as recommended by the manufacturer. Metabolic stability assessments were conducted using in vitro liver microsomes. […] The reaction is started with the addition of 1 U/mL glucose-6-phosphate dehydrogenase G6PD. The mixture is incubated on a shaking platform at 37°C, and aliquots are taken and quenched with the addition of an equal volume of cold acetonitrile at 0, 10, 20, 30, and 60 min. Samples are centrifuged at 3700 rpm for […] at 20°C to remove debris. Sample quantification is carried out by LC/MS, and metabolic half-life is calculated by log plots of the total ion chromatograph area remaining.

[2] = system: MDR1-transfected MDCK cell monolayers; assay: in vitro
Protocol: (§2) For this reason, the apparent permeability of selected compounds across MDR1-transfected MDCK cell monolayers was determined. This assay is an in vitro surrogate of the blood-brain barrier.
(§3) Permeability was determined by Absorption Systems (Exton, PA). MDR1-MDCK cell monolayers were grown to confluence on collagen-coated, microporous, polycarbonate membranes in 12-well Costar Transwell plates. […] The permeability assay buffer was Hanks Balanced Salt Solution containing 10 mM HEPES and 15 mM glucose at a pH of 7.4. A known p-glycoprotein inhibitor cyclosporin A (CSA) was also added to the assay buffer at 10 μM. Bovine serum albumin (1%) was added to the receiver well. The dosing solution concentrations of the test compounds were 5.0 μM in the assay buffer. All cell monolayers were first pre-incubated for 30 minutes with assay buffer. After 30 minutes, the buffer was removed, replaced with fresh buffer, and time was recorded as 0. […] Cell monolayers were dosed on the apical side (A-to-B) or basolateral side (B-to-A) and incubated at 37°C with 5% CO2 in a humidified incubator. After 2 hours, aliquots were taken from the receiver chambers. Samples were taken from the donor chamber at 0 and 2 hours. Each determination was performed in duplicate. The lucifer yellow flux was also measured for each monolayer to ensure no damage was inflicted to the cell monolayers during the flux period. All samples were assayed by LC/MS/MS using electrospray ionization.
(§4) Apparent permeability in the apical (A-B direction), PappA-B, and percent recovery are reported. Apparent permeability is a measure of the rate of transport across the cell monolayer. Percent recovery refers to the amount of compound recoverable at the end of the assay. Low recovery may indicate non-specific binding to assay plates, instability or accumulation in the cell pellet.
(§5) The apparent permeability, Papp, and percent recovery were calculated as follows:
(§6) Papp = (dCr/dt) × Vr/(A × C0) (1)
(§7) Percent Recovery = 100 × ((Vr × Cr^final) + (Vd × Cd^final))/(Vd × […]) (2)

[3] = in vitro; settings: dog, MDCK-MDR1, pH 7.4
Protocol: as §2, §3, §4, §5, §6, §7

[4] = system: P. falciparum strain D6; assay: labeled hypoxanthine susceptibility assay, P. falciparum D6; format: cell-based, Plasmodium falciparum; settings: Plasmodium falciparum
Protocol: (§8) The in vitro activities of quinoline methanols against P. falciparum strains W2, D6, TM91C235, and TM90C2A were evaluated using the traditional labeled hypoxanthine assay of Desjardins et al as modified by Milhous et al. These four P. falciparum strains were selected since they have various levels of resistance to conventional anti-malarials.

[5] = system: P. falciparum strain TM91C235; assay: labeled hypoxanthine susceptibility assay, P. falciparum TM91C235; format: cell-based, Plasmodium falciparum; settings: Plasmodium falciparum
Protocol: as §8

[6] = system: P. falciparum strain TM90C2A; assay: labeled hypoxanthine susceptibility assay, P. falciparum TM90C2A; format: cell-based, Plasmodium falciparum
Protocol: as §8

[7] = in vitro; settings: mouse
Protocol: (§9) General cytotoxicity was assessed by first determining LC50 's against a rodent macrophage (RAW) cell line using the 3-(4,5-dimethylthiazole-2-yl)-2,5-diphenyltetrazolium bromide (MTT) assay as described in one of our earlier studies. This screen was conducted to identify compounds that may require de-selection due to generalized toxicity. […] In vitro neurocytotoxicity was assessed by determining LC50s against primary mouse neurons using the MTT assay as described previously. Inhibition of the A2A and A1 receptors was determined at 200 nM in duplicate by Caliper Biosciences (Hanover, Maryland).

[8] = system: P. falciparum strain W2; assay: labeled hypoxanthine susceptibility assay, P. falciparum W2; format: cell-based, Plasmodium falciparum; settings: Plasmodium falciparum
Protocol: as §8

[9] = molecular target: T1, A1 receptor (Homo sapiens, UniProt P30542); assay: inhibition of the A1 receptor at 200 nM; format: binding; settings: duplicate
T1 construct: Caliper Biosciences (contract screen)
T1 sequence (P30542 1-326): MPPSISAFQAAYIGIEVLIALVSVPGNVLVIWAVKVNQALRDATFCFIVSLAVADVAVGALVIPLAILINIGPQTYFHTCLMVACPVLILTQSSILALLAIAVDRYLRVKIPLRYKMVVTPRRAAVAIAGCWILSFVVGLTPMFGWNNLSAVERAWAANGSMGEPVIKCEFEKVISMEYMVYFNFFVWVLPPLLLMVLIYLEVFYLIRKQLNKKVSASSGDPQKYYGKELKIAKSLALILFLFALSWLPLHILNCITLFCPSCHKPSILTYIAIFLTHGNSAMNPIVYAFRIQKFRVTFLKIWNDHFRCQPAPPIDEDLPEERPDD
Protocol: as §9

[10] = molecular target: T2, A2A receptor (Homo sapiens, UniProt P29274); assay: inhibition of the A2A receptor at 200 nM; format: binding; settings: read-out: % A2A inhibition at 200 nM
T2 construct: Caliper Biosciences (contract screen)
Protocol: as §9

[11] = in vitro; settings: mouse; remark: listed apart in the source
Protocol: as §9

[12] = molecular target: T3, CYP450 2C19 (Homo sapiens, UniProt P33261); assay: CYP450 inhibition kit (drug-drug interaction), 2C19; format: biochemical
T3 construct: purchased BD Gentest (Franklin Lakes, NJ)
Protocol: as §1, with “Low” for “Interesting compounds were also submitted for drug-drug interaction and metabolic stability assays. Low”

[13] = molecular target: T4, CYP450 3A4 (Homo sapiens, UniProt P08684); assay: CYP450 inhibition kit (drug-drug interaction), 3A4; format: biochemical
T4 construct: purchased BD Gentest (Franklin Lakes, NJ)
Protocol: as §1, with “Low” for “Interesting compounds were also submitted for drug-drug interaction and metabolic stability assays. Low”

[14] = molecular target: T5, CYP450 2C9 (Homo sapiens, UniProt P11712); assay: CYP450 inhibition kit (drug-drug interaction), 2C9; format: biochemical
T5 construct: purchased BD Gentest (Franklin Lakes, NJ)
Protocol: as §1, with “Low” for “Interesting compounds were also submitted for drug-drug interaction and metabolic stability assays. Low”

[15] = molecular target: T6, CYP450 2D6 (Homo sapiens, UniProt P10635); assay: CYP450 inhibition kit (drug-drug interaction), 2D6; format: biochemical
T6 construct: purchased BD Gentest (Franklin Lakes, NJ)
Protocol: as §1, with “Low” for “Interesting compounds were also submitted for drug-drug interaction and metabolic stability assays. Low”

[16] = molecular target: T7, CYP450 1A2 (Homo sapiens, UniProt P05177); assay: CYP450 inhibition kit (drug-drug interaction), 1A2; format: biochemical
T7 construct: purchased BD Gentest (Franklin Lakes, NJ)
T7 sequence (P05177 1-516): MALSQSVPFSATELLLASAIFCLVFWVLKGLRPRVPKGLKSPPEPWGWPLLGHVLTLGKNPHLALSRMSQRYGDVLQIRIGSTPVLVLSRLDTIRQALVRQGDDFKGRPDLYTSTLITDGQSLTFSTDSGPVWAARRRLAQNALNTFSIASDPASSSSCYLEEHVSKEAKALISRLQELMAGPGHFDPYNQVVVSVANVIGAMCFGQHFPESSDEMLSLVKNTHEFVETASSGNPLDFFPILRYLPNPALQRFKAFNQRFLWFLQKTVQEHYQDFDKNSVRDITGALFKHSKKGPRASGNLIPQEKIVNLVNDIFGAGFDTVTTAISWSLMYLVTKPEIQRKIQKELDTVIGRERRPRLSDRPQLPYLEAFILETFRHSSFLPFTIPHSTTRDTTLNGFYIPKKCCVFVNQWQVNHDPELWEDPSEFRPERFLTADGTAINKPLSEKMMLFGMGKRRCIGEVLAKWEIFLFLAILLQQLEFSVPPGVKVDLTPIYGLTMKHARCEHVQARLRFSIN
Protocol: as §1, with “Low” for “Interesting compounds were also submitted for drug-drug interaction and metabolic stability assays. Low”

[17] = system: rodent macrophage (RAW) cell line; assay: cells; settings: Mus musculus, Macrophage, read-out: Macrophage IC50
Protocol: as §9

[18] = Figure 3, species of microsomes not given
[19] = dog, MDCK-MDR1, 2 h, 5 μM, pH 7.4
[20] = D6, read-out: IC90 Pf D6, P. falciparum D6, mefloquine: historical mean +/- SD (n)
[21] = Plasmodium falciparum, TM90C2A, read-out: IC90 Pf C2A
[22] = Plasmodium falciparum, TM90C2A; read-out: IC90 PfC2A

T5 sequence (P11712 whole entry): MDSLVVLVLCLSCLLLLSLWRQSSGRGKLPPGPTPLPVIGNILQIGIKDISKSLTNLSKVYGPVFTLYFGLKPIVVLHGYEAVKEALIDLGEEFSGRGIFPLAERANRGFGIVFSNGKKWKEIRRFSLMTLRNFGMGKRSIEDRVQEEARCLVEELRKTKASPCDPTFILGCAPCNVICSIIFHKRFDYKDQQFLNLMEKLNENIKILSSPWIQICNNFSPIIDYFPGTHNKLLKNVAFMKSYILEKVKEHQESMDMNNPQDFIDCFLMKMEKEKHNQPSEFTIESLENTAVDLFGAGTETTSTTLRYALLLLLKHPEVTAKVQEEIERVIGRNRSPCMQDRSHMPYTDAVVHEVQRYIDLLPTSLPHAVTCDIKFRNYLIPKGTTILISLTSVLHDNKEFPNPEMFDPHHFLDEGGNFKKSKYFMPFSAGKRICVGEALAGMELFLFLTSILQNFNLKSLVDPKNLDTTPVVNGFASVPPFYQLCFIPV
T4 sequence (P08684 whole entry): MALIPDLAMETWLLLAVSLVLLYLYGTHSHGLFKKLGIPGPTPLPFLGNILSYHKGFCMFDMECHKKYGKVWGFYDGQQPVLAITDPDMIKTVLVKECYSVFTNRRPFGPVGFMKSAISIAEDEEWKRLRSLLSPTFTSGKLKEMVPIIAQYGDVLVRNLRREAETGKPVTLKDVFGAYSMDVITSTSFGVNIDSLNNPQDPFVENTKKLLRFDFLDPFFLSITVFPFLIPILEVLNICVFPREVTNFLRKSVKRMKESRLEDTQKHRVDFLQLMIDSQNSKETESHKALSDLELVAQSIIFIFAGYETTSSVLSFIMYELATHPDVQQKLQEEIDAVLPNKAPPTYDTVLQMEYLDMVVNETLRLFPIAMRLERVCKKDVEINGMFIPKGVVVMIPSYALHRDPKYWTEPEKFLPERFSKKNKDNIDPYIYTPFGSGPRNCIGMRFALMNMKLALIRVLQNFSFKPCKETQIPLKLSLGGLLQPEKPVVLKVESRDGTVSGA
T3 sequence (P33261 whole entry): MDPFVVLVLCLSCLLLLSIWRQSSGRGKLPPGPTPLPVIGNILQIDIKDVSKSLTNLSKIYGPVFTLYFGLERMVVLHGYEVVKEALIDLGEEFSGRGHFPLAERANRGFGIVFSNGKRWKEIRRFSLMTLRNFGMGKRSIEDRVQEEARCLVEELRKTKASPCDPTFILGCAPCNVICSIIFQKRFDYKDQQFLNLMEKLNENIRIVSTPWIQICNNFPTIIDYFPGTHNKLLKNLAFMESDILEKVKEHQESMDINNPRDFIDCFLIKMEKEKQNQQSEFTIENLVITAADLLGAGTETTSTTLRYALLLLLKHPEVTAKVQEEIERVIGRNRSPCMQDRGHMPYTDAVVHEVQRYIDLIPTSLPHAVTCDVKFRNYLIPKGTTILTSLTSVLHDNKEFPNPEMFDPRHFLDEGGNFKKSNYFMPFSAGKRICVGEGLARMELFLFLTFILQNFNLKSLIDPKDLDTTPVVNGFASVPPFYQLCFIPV
T6 sequence (P10635 whole entry): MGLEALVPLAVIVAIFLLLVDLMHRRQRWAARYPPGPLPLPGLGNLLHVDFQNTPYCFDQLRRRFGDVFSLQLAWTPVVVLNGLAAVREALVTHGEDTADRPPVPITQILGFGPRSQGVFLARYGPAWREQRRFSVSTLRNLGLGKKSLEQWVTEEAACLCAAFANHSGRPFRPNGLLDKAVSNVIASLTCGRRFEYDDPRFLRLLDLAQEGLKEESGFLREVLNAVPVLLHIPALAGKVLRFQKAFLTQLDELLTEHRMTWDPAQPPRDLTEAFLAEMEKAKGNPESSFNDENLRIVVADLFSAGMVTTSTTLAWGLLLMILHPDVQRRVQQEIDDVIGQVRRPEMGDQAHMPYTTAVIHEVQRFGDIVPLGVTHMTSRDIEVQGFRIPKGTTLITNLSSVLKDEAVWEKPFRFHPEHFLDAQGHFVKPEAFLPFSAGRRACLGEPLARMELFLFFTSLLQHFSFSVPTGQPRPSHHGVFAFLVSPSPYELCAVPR
T2 sequence (P29274 whole entry): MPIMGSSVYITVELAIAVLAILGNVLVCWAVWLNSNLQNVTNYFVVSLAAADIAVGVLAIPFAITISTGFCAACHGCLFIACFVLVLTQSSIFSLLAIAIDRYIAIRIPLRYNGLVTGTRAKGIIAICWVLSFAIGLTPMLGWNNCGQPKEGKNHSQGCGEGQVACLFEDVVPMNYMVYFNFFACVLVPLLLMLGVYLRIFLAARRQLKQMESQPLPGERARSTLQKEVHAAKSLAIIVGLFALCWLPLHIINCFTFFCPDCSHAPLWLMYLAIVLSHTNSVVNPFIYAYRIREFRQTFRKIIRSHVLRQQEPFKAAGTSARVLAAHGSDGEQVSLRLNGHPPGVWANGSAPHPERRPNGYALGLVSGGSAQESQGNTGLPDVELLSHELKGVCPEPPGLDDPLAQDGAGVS

| SMILES | HL in Microsomes [1, 18] [min] | % recovery (MDCK-MDR1 permeability assay) [2, 19] [%] | Papp A→B at 2 h, 5 μM [3] [×10⁻⁶ cm/s] | IC90 [4, 20] [µg/mL] | IC90 ([5]; read-out: IC90 Pf C235) [µg/mL] | IC90 [6, 21] [µg/mL] | IC90 [6, 22] [µM] | CC50 [7] [µg/mL] | IC90 ([8]; W2, read-out: IC90 Pf W2) [µg/mL] | CC50 [11] [µM] | other results |
| --- | --- | --- | --- | --- | --- | --- | --- | --- | --- | --- | --- |
| CCCCNCC(O)c1cc(C(F)(F)F)nc2c(C(F)(F)F)cccc12 (racemic) [WR177000] | 37 | 58 | 25.4 | 0.0067 (≈ 0.0176 µM) | 0.0089 (≈ 0.0234 µM) | 0.0123 | 0.032 | 2.78 (≈ 7.31 µM) | 0.0017 (≈ 0.00447 µM) | – | – |
| OC(c1cc(C(F)(F)F)nc2c(C(F)(F)F)cccc12)C1CCCCN1 (stereo not drawn) [Mefloquine, mefloquine, reference compound] | – | – | – | 0.017 ± 0.011 (≈ 0.0449 µM) | 0.052 ± 0.03 (≈ 0.137 µM) | 0.074 ± 0.032 | – | 3.72 ± 1.51 (≈ 9.84 µM) | 0.0062 ± 0.0028 (≈ 0.0164 µM) | 41 | HL in Microsomes ([1]; 1 μM, pH 7.4): > 60 min; half-life at 1 μM ([1]; mouse, microsomes, pH 7.4): > 60 min; inhibition at 0.2 µM [9]: 4%; inhibition at 0.2 µM [10]: 62%; PappA-B MDCK-MDR1 ([2]; apical (A-B) direction, 5.0 μM, 10 μM cyclosporin A, 2 h, mefloquine average of n = 3): 9.4 10^-6 cm/s; % recovery (MDCK-MDR1 permeability assay) ([2]; compound recoverable at end of assay): < 40%; IC90 ([6]; Plasmodium falciparum, TM90C2A, read-out: IC90 PfC2A): 0.171 µM |
| CCC(C)CNCC(O)c1cc(C(F)(F)F)nc2c(C(F)(F)F)cccc12 (stereo not drawn) [WR308387] | – | 42 | 18 | 0.007 (≈ 0.0178 µM) | 0.012 (≈ 0.0304 µM) | 0.011 | 0.026 | – | 0.0012 (≈ 0.00304 µM) | > 120 | IC50 [12]: 7 µM; IC50 [13]: > 40 µM; half-life at 1 μM ([1]; pH 7.4, mouse liver microsomes, 1 μM, read-out: Half-life in mouse micro): 20 min; IC50 [14]: 11 µM; IC50 [15]: 2 µM; IC90 ([4]; D6, read-out: PF D6 IC90, P. falciparum D6): 0.00695 µg/mL (≈ 0.0176 µM); IC90 ([5]; read-out: PF C235 IC90): 0.0116 µg/mL (≈ 0.0293 µM); IC50 [16]: 2.1 µM; IC90 ([6]; Plasmodium falciparum, TM90C2A, read-out: PF C2A IC90): 0.011 µg/mL; CSI (C2A/W2) ([6]; ratio of IC90 C2A to IC90 W2): 9.2; IC50 [17]: 20.8 µM; IC90 ([8]; W2, read-out: PF W2 IC90): 0.00119 µg/mL (≈ 0.00302 µM) |
| OC(CNCC1CCCN1)c1cc(C(F)(F)F)nc2c(C(F)(F)F)cccc12 (stereo not drawn) [WR308621] | > 60 | 28 | < 3.3 | 0.092 (≈ 0.226 µM) | 0.1 (≈ 0.245 µM) | 0.198 | – | 20.3 (≈ 49.8 µM) | 0.046 (≈ 0.113 µM) | – | – |
| CCCCNCCNCC(O)c1cc(C(F)(F)F)nc2c(C(F)(F)F)cccc12 (stereo not drawn) [WR318746] | > 60 | 42 | 5.9 | 0.155 (≈ 0.366 µM) | 0.283 (≈ 0.668 µM) | 0.319 | – | 28.5 (≈ 67.4 µM) | 0.09 (≈ 0.213 µM) | – | – |
| OC(CNCC12CCC(C1)NC2)c1cc(C(F)(F)F)nc2c(C(F)(F)F)cccc12 (stereo not drawn) [WR319535/581] | > 60 | 52 | 2 | 0.075 (≈ 0.173 µM) | 0.26 (≈ 0.6 µM) | 0.251 | – | 4.11 (≈ 9.48 µM) | 0.275 (≈ 0.635 µM) | – | – |
